In US7521533B2, “Tryptase polypeptide and uses thereof” (priority 2002, dated 2009):
“Also recorded” adds a separate entry of the source.

Assay: Cleavage of trypsin-susceptible pNA chromogenic substrate, reverse-phase HPLC
Type: biochemical
Conditions: for ability to cleave D-Ile-Phe-Lys pNA / ability to cleave N-Benzoyl-Pro-Phe-Arg-pNA / ability to cleave N-p-Tosyl-Gly-Pro-Lys 4-pNA: ~2 μg enzyme, 10 μg substrate, 37° C. 2 hrs, 100 mM HEPES pH7.5 10% glycerol, no exogenous heparin
Method: The enzymatic activity of recombinant δ tryptase was evaluated by testing its ability to cleave a panel of three trypsin-susceptible p-nitroanilide (pNA) chromogenic substrates; N-Benzoyl-Pro-Phe-Arg-pNA, D-Ile-Phe-Lys pNA, and N-p-Tosyl-Gly-Pro-Lys 4-pNA (Sigma-Adrich, St Louis, Mo.) and was compared to that of rαII tryptase, and commercially available native human lung tryptase (ICN, Costa Mesa, Calif.) and recombinant human lung βII tryptase (Promega, Madison, Wis.). Pro-δ tryptase (ie prior to removal of the EK susceptible activation peptide), recombinant EK alone, and buffer alone acted as negative controls. Approximately equal amounts (˜2 μg) of the enzymes were incubated with each substrate (10 μg) at 37° C. for 2 hrs, in 100 mM HEPES pH7.5 10% glycerol (total reaction volume=50 μl), and then analysed by HPLC using a reverse-phase column (4.6×50 […] RP18 Xterra, Waters, Bedford, Mass.). In this initial investigation no exogenous heparin was added. Substrate cleavage was determined by the detection of new peaks representing the separated peptide and nitroanilide moieties. The amount of substrate cleaved was estimated by measuring the area under the HPLC peak that corresponded to the liberated peptide moiety using Delta T Scan software version 2.04 (Delta T Devices Ltd, Cambridge, UK). The retention time of the liberated nitroanilide was constant and was experimentally determined to be 2.67 mins.

| amount of D-Ile-Phe-Lys pNA substrate cleaved, as much as that cleaved by rβII tryptase (area under HPLC peak of liberated peptide moiety, relative to rβII tryptase) | Substance | ability to cleave D-Ile-Phe-Lys pNA | ability to cleave N-Benzoyl-Pro-Phe-Arg-pNA | ability to cleave N-p-Tosyl-Gly-Pro-Lys 4-pNA |
| --- | --- | --- | --- | --- |
| – | pro-rδ tryptase: Recombinant δ tryptase prior to removal of the EK susceptible activation peptide; negative control | No substrate cleavage was detected | – | – |
| – | rβII tryptase: Commercially available recombinant human lung βII tryptase (Promega) [reference compound] | cleave all three substrates | cleave all three substrates | cleave all three substrates |
| approximately 12% | rδ tryptase: Recombinant human δ tryptase expressed in bacterial cells, refolded, mature form generated by enterokinase cleavage | able to cleave; also recorded: cleaves | ineffective | ineffective |
